Data on 21 compounds can be found in patent publication US12122779B2, “Pyrrolo-pyridazine derivatives as muscarinic M1 receptor positive allosteric modulators” (SUVEN LIFE SCIENCES LIMITED, priority 2018, dated 2024).

SMILES strings stand for the structures.

Data set [1] concerns the target T1, recombinant human Muscarinic M1 receptor (Homo sapiens, UniProt P11229).
T1 sequence (P11229 1-460): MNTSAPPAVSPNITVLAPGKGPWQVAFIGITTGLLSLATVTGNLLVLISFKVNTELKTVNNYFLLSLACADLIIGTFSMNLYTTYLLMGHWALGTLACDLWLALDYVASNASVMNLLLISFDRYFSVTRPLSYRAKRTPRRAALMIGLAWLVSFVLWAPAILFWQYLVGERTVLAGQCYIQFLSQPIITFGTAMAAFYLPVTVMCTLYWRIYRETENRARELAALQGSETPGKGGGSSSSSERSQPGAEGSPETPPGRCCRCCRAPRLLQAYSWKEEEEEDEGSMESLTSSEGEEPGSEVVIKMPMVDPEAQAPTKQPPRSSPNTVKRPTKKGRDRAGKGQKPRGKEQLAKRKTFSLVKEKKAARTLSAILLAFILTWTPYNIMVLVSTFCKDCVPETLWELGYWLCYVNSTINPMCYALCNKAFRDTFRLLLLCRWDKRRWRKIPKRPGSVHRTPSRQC
The experiment in a line: Allosteric potency EC50 for muscarinic M1 receptor, CHO pCRE-Luc reporter cell-based assay with EC20 of acetylcholine. The note with it: CHO cells, luciferase activity, in presence of EC20 of acetylcholine, 4 hours. As for the experimental part:
Determination of Allosteric Potency EC50 Values for Muscarinic M1 Receptor
A stable CHO cell line expressing recombinant human Muscarinic M1 receptor and pCRE-Luc reporter system was used for cell-based assay. The assay offers a non-radioactive based approach to determine binding of a compound to GPCRs. In this specific assay, the level of intracellular cyclic AMP which is modulated by activation or inhibition of the receptor is measured. The recombinant cells harbor luciferase reporter gene under the control of cyclic AMP response element.
The above cells were grown in 96 well clear bottom white plates in Hams F12 medium containing 10% fetal bovine serum (FBS). Prior to the addition of compounds or standard agonist, cells were serum starved overnight. Increasing concentrations of test compounds were added along with EC20 of acetylcholine in OptiMEM medium to the cells. The incubation was continued at 37° C. in CO2 incubator for 4 hours. Medium was removed and cells were washed with phosphate buffered saline. The cells were lysed and luciferase activity was measured in a Luminometer. Luminescence units were plotted against the compound concentrations using Graphpad software.

Data set [2] is described as follows: Rodent pharmacokinetic study. The class given is in vivo, Male Wistar rats. As to conditions: male, Wistar, plasma, rat; for bioavailability: oral 3 mg/kg vs intravenous 1 mg/kg, read-out: F (%) Bioavailability. As for the experimental part:
Rodent Pharmacokinetic Study
Male Wistar rats (260±50 grams) were used as experimental animals. Animals were housed individually in polypropylene cage. Two days prior to study, male Wistar rats were anesthetized with isoflurane for surgical placement of jugular vein catheter. Rats were randomly divided for oral (3 mg/kg) and intravenous (1 mg/kg) dosing (n=3/group) and fasted overnight before oral dosing (p.o.). However, rats allocated to intravenous dosing food and water was provided ad libitum.
At pre-determined point, blood was collected through jugular vein and replenished with an equivalent volume of normal saline. Collected blood was transferred into a labeled eppendorf tube containing 10 μL of heparin as an anticoagulant. Typically blood samples were collected at following time points: 0.08, 0.25, 0.5, 1, 2, 4, 6, 8, and 24 h post dose. Blood was centrifuged at 4000 rpm for 10 minutes. Plasma was separated and stored frozen at −80° C. until analysis. The concentrations of the test compounds were quantified in plasma by qualified LC-MS/MS method using suitable extraction technique. The test compounds were quantified in the calibration range around 1-1000 ng/mL in plasma. Study samples were analyzed using calibration samples in the batch and quality control samples spread across the batch.
Pharmacokinetic parameters Cmax, AUCt, T1/2, Clearance and Bioavailability (F) were calculated by non-compartmental model using standard non-compartmental model by using Phoenix WinNonlin 6.0.4 version Software package.

Consider `O=C(N[C@H]1CCCC[C@@H]1O)c1cc(Cc2ccc(Cc3ccnc(F)c3)cc2)c2cccn2n1` [Example 50, N-[(1S,2S)-2-Hydroxycyclohexyl]-4-[4-(2-fluoropyridin-4-yl-methyl)-benzyl]-pyrrolo[1,2-b]pyridazine-2-carboxamide], for which the EC50 in data set [1] stood at 0.518 µM. On the same count and under the same terms, the result for `Cn1cc(-c2ccc(Cc3cc(C(=O)NC4CCOC4)nn4cccc34)cc2)cn1` (stereo not drawn) [Example 32, N-[Tetrahydrofuran-3-yl] 4-[4-(1-methyl-1H-pyrazol-4-yl)-benzyl]-pyrrolo[1,2-b]pyridazine-2-carboxamide] reads 2.02 µM; that for `O=C(N[C@H]1CCCC[C@@H]1O)c1cc(Cc2ccc(Br)cc2)c2cccn2n1` [Example 5, N-[(1S,2S)-2-Hydroxycyclohexyl]-4-(4-bromobenzyl)-pyrrolo[1,2-b]pyridazine-2-carboxamide], 0.344 µM; that for `O=C(NC1CCOC1)c1cc(Cc2ccc(-c3cccnc3)cc2)c2cccn2n1` (stereo not drawn) [Example 34, N-[Tetrahydrofuran-3-yl] 4-[4-(3-pyridyl)-benzyl]-pyrrolo[1,2-b]pyridazine-2-carboxamide], 2.85 µM. Still for that read-out and setting: the value for `CC(C)(O)CNC(=O)c1cc(Cc2ccc(Cl)cc2)c2cccn2n1` [Example 3, N-[2-Hydroxy-2-methyl-propyl]-4-(4-chlorobenzyl)-pyrrolo[1,2-b]pyridazine-2-carboxamide] was 0.941 µM.

As to `O=C(NC1CCOC1)c1cc(Cc2ccc(-c3ccncc3)cc2)c2cccn2n1` (stereo not drawn) [Example 33, N-[Tetrahydrofuran-3-yl] 4-[4-(4-pyridyl)-benzyl]-pyrrolo[1,2-b]pyridazine-2-carboxamide], the EC50 in data set [1] stood at 2.11 µM. Still for that read-out and setting: the result for `Cn1cc(-c2ccc(Cc3cc(C(=O)NCC4(O)CCOCC4)nn4cccc34)cc2)cn1` [Example 22, N-[4-Hydroxy-tetrahydro-pyran-4-ylmethyl] 4-[4-(1-methyl-1H-pyrazol-4-yl)-benzyl]-pyrrolo[1,2-b]pyridazine-2-carboxamide] reads 1.66 µM. In data set [2] (intravenous (bolus), 1 mg/kg), `O=C(N[C@H]1CCCC[C@@H]1O)c1cc(Cc2ccc(-c3ccncc3)cc2)c2cccn2n1` (stereo in doubt) [Example 27, N-[(1S,2S)-2-Hydroxycyclohexyl] 4-[4-(4-pyridyl)-benzyl]-pyrrolo[1,2-b]pyridazine-2-carboxamide] showed an AUC(0-t) of 687 ± 50 ng·h/mL, a clearance of 24 ± 1.8 mL/min/kg and a half-life of 1.1 ± 0.3 h. Further, the bioavailability in data set [2] is 49 ± 16%. Also, in data set [2] (oral (gavage), 3 mg/kg), the AUC(0-t) worked out at 1000 ± 320 ng·h/mL, the Cmax is 397 ± 162 ng/mL and the half-life was 1.06 ± 0.08 h. Take `CC(C)C(CO)NC(=O)c1cc(Cc2ccc(-c3cnn(C)c3)cc2)c2cccn2n1` (stereo not drawn) [Example 37, N-[1-Hydroxymethyl-2-methylpropyl] 4-[4-(1-methyl-1H-pyrazol-4-yl)-benzyl]-pyrrolo[1,2-b]pyridazine-2-carboxamide]: the EC50 in data set [1] turned out to be 0.411 µM.

As for `CC(C)C(CO)NC(=O)c1cc(Cc2ccc(Br)cc2)c2cccn2n1` (stereo not drawn) [Example 17, N-[1-Hydroxymethyl-2-methylpropyl]-4-(4-bromobenzyl)-pyrrolo[1,2-b]pyridazine-2-carboxamide], in data set [1], the EC50 is 1.9 µM.

Regarding `Cn1cc(-c2ccc(Cc3cc(C(=O)NC4CCOCC4)nn4cccc34)cc2)cn1` [Example 21, N-[Tetrahydropyran-4-yl] 4-[4-(1-methyl-1H-pyrazol-4-yl)-benzyl]-pyrrolo[1,2-b]pyridazine-2-carboxamide], in data set [2] (intravenous (bolus), 1 mg/kg), the AUC(0-t) came out at 8200 ± 1560 ng·h/mL, the clearance was 1.9 ± 0.5 mL/min/kg and the half-life is 8.1 ± 1.4 h. Moreover, the bioavailability in data set [2] was determined as 58 ± 2%. Moreover, in data set [2] (oral (gavage), 3 mg/kg), the AUC(0-t) came to 14200 ± 493 ng·h/mL, the Cmax is 1060 ± 257 ng/mL and the half-life was 8.7 ± 3 h. Regarding `O=C(NCCO)c1cc(Cc2ccc(Br)cc2)c2cccn2n1` [Example 12, N-[2-hydroxyethyl]-4-(4-bromobenzyl)-pyrrolo[1,2-b]pyridazine-2-carboxamide], in data set [1], the EC50 amounted to 1.55 µM. Same read-out and setting: the result for `O=C(N[C@H]1CCCC[C@@H]1O)c1cc(Cc2ccc(-c3ccc(F)cc3)cc2)c2cccn2n1` (stereo in doubt) [Example 23, N-[(1S,2S)-2-Hydroxycyclohexyl] 4-[4-(4-fluorophenyl)-benzyl]-pyrrolo[1,2-b]pyridazine-2-carboxamide] reads 1.02 µM. As to `O=C(N[C@H]1CCCC[C@@H]1O)c1cc(Cc2ccc(Cl)cc2)c2cccn2n1` [Example 2, N-[(1S,2S)-2-Hydroxycyclohexyl]-4-(4-chlorobenzyl)-pyrrolo[1,2-b]pyridazine-2-carboxamide], in data set [1], the EC50 came to 0.555 µM. Same read-out and setting: the result for `O=C(NCC1(O)CCOCC1)c1cc(Cc2ccc(Cl)cc2)c2cccn2n1` [Example 6, N-[(4-Hydroxy-tetrahydro-pyran-4-ylmethyl)]-4-(4-chlorobenzyl)-pyrrolo[1,2-b]pyridazine-2-carboxamide] reads 3.99 µM. `CCC(CO)NC(=O)c1cc(Cc2ccc(-c3cnn(C)c3)cc2)c2cccn2n1` (stereo not drawn) [Example 36, N-[l-Hydroxymethyl-propyl] 4-[4-(1-methyl-1H-pyrazol-4-yl)-benzyl]-pyrrolo[1,2-b]pyridazine-2-carboxamide]: the EC50 in data set [1] is 1.15 µM. `CCC(CO)NC(=O)c1cc(Cc2ccc(Br)cc2)c2cccn2n1` (stereo not drawn) [Example 16, N-[1-Hydroxymethyl-propyl]-4-(4-bromobenzyl)-pyrrolo[1,2-b]pyridazine-2-carboxamide]: the EC50 in data set [1] came out at 1 µM. For the compound `Cn1cc(-c2ccc(Cc3cc(C(=O)NCC4CCOC4)nn4cccc34)cc2)cn1` (stereo not drawn) [Example 35, N-[Tetrahydrofuran-3-ylmethyl] 4-[4-(1-methyl-1H-pyrazol-4-yl)-benzyl]-pyrrolo[1,2-b]pyridazine-2-carboxamide], the EC50 in data set [1] came to 0.343 µM. Consider `O=C(N[C@H]1CCCC[C@@H]1O)c1cc(Cc2ccc(-c3cccnc3)cc2)c2cccn2n1` (stereo in doubt) [Example 26, N-[(1S,2S)-2-Hydroxycyclohexyl] 4-[4-(3-pyridyl)-benzyl]-pyrrolo[1,2-b]pyridazine-2-carboxamide], for which, in data set [2] (intravenous (bolus), 1 mg/kg), the AUC(0-t) stood at 1130 ± 61 ng·h/mL, the clearance is 14.4 ± 1 mL/min/kg and the half-life is 1.8 ± 0.2 h. For the same compound, the bioavailability in data set [2] came to 71 ± 4%. Moreover, in data set [2] (oral (gavage), 3 mg/kg), the AUC(0-t) was 2390 ± 129 ng·h/mL, the concentration peaked (Cmax) at 762 ± 80 ng/mL and the half-life is 1.77 ± 0.07 h. Turning to `O=C(NC1CCOCC1)c1cc(Cc2ccc(-c3cccnc3)cc2)c2cccn2n1` [Example 28, N-[Tetrahydropyran-4-yl] 4-[4-(3-pyridyl)-benzyl]-pyrrolo[1,2-b]pyridazine-2-carboxamide], the EC50 in data set [1] is 0.586 µM. For `O=C(N[C@H]1CCCC[C@@H]1O)c1cc(Cc2cccc(F)c2)c2cccn2n1` [Example 7, N-[(1S,2S)-2-Hydroxycyclohexyl]-4-(3-fluorobenzyl)-pyrrolo[1,2-b]pyridazine-2-carboxamide], the EC50 in data set [1] came to 0.847 µM.
